Laboratory results published in article PMC8571378, “Reversion analysis reveals the in vivo immunogenicity of a poorly MHC I-binding cancer neoepitope” (Nature Communications, 2021).

How the values were obtained:
Meth A [1] = experiment: Tumor rejection (immunization-challenge) assay; tumor growth AUC and tumor rejection score (TRS); assay type: in vivo, BALB/cJ mice
Method: Each line represents tumor growth in a single mouse (n = 5 mice per group). AUC for each group is plotted in the panel on the right. Data are presented as mean ± SD. P values were calculated using 1-way ANOVA test adjusted for multiple comparisons (Tukey’s multiple comparison test). c Several truncated versions of the 18-mer Ccdc85c^MUT peptide were tested in tumor rejection assay. BALB/cJ mice were immunized and tumor challenged. Each line represents tumor growth in a single mouse. Although mice were immunized with individual peptides, the data for multiple peptides are grouped into one with the composition of the peptides shown on the right. The tumor rejection data for individual peptides are shown in Supplementary Fig. 1. Tumor rejection score (TRS) for each neoepitope is shown in the yellow box, where five represents a complete tumor protection and zero means no tumor rejection. d On the left panel, total Area Under the Curve (AUC) scores for each group in B are plotted. […] Error bars represent standard deviation (SD). […] P values were calculated using 1-way ANOVA test adjusted for multiple comparisons. […] Matched peak lists for the “heavy” and “light” ions were extracted and monitored, while only single charge y ions were plotted. See Methods for details. f Predicted (by NetMHC4.0) and measured IC50 values of the binding of candidate precise neoepitopes of Ccdc85c^MUT to K^d are shown. […] The affinities of the MS/TRS predicted neoepitopes were also measured for D^d and L^d; measured affinities were below the level of detection.
The mutation is heterozygous and the un-mutated as well as the mutated reads are detected in the transcripts. […] All mice were challenged with the Meth A cells, and tumor rejection was monitored (Fig. 1b upper panel). […]
Area under the curve (AUC) is used as a tool to measure tumor growth. Briefly, AUC was calculated by selecting “Curves & Regression” and then “Area under curve” from the “analyze” tool, using the Prism 5.0 (GraphPad). […]

Meth A [2] = conditions: anti-CD8 antibody during the priming phase; control antibody without effect; as previously described; cited from earlier work
Description: The mutation is heterozygous and the un-mutated as well as the mutated reads are detected in the transcripts. BALB/cJ bone marrow derived dendritic cells (BMDCs) pulsed with an 18-mer peptide with the mutant amino acid near the center ([…]) or un-mutated peptide ([…]), were used to immunize BALB/cJ mice. All mice were challenged with the Meth A cells, and tumor rejection was monitored (Fig. 1b upper panel).

DPSSTYIRPFETKVKLLD [18-mer peptide with the mutant amino acid near the center]
tumor rejection (in words) (Meth A [1]; BALB/cJ mice immunized twice, CTLA4 blockade): potent tumor rejection or control in all mice
Tumor rejection score (TRS) (Meth A [1]; BALB/cJ mice, BMDCs pulsed with 40 µg peptide, two immunizations one week apart, CTLA4 blockade (9D9), scale 0 (no rejection) to 5 (100% of mice)): 5.0
effect of CD8 depletion on anti-tumor activity (Meth A [2]): abrogated
